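A five-concentration, 48-hour dose response in 96-well plates underlies each endpoint, interpolated linearly between surrounding concentrations. Here, GI50 denotes the concentration required for 50% inhibition of growth. TGI marks complete inhibition of growth.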
Experiments:
Assay in all cases: NCI anticancer screen, dose series, 48 h
SN12C renal = system: SN12C renal
MDA-MB-231 breast = system: MDA-MB-231 breast
COLO 205 colon = system: COLO 205 colon
HOP-62 NSCLC = system: HOP-62 NSCLC
SK-OV-3 ovarian = system: SK-OV-3 ovarian
SK-MEL-28 melanoma = system: SK-MEL-28 melanoma
EKVX NSCLC = system: EKVX NSCLC
T-47D breast = system: T-47D breast
KM12 colon = system: KM12 colon
MOLT-4 leukemia = system: MOLT-4 leukemia

Compound	GI50 (SN12C renal)	TGI (SN12C renal)	GI50 (MDA-MB-231 breast)	TGI (MDA-MB-231 breast)	GI50 (COLO 205 colon)	TGI (COLO 205 colon)	GI50 (HOP-62 NSCLC)	TGI (HOP-62 NSCLC)	GI50 (SK-OV-3 ovarian)	TGI (SK-OV-3 ovarian)	TGI (SK-MEL-28 melanoma)	GI50 (EKVX NSCLC)	TGI (EKVX NSCLC)	GI50 (T-47D breast)	TGI (T-47D breast)	GI50 (KM12 colon)	TGI (KM12 colon)	GI50 (MOLT-4 leukemia)	TGI (MOLT-4 leukemia)	GI50 (SK-MEL-28 melanoma)
c1ccc(-n2nnnc2-c2cccc3ccccc23)cc1	1.33 µM	> 100 µM	1.34 µM	28.8 µM	0.49 µM	3.83 µM	0.765 µM	> 100 µM	0.908 µM	13.5 µM	> 100 µM	2.42 µM	> 100 µM	0.461 µM	> 100 µM	0.396 µM	22.8 µM	0.657 µM	> 100 µM	–
Cc1c(C)[n+](=O)c(C)c(C)n1[O-]	> 100 µM	> 100 µM	> 100 µM	> 100 µM	> 100 µM	> 100 µM	> 100 µM	> 100 µM	> 100 µM	> 100 µM	> 100 µM	> 100 µM	> 100 µM	> 100 µM	> 100 µM	> 100 µM	> 100 µM	> 100 µM	> 100 µM	> 100 µM
COc1ccc(C(=O)c2cc3c(OC)c(OC)c(OC)cc3[nH]2)cc1	5.21 µM	> 100 µM	4.96 µM	> 100 µM	3.45 µM	> 100 µM	19.6 µM	80.9 µM	> 100 µM	> 100 µM	> 100 µM	5.14 µM	> 100 µM	4.53 µM	> 100 µM	2.36 µM	> 100 µM	3.51 µM	> 100 µM	8.79 µM
CO[C@@H]1CC(=O)C2(CC(=O)O[C@@H]2/C=C(\C)CCC=C(C)C)C[C@@H]1O (some centres undefined)	0.705 µM	1.64 µM	0.642 µM	1.66 µM	1.07 µM	2.11 µM	1.06 µM	2.64 µM	1.62 µM	5.3 µM	1.86 µM	1.42 µM	4.51 µM	0.522 µM	1.26 µM	1.03 µM	3.97 µM	0.233 µM	> 50 µM	0.83 µM
Cc1c2c[n+](C(C)C)ccc2c(C)c2c1[nH]c1ccccc12	0.32 µM	11.8 µM	4.86 µM	43 µM	1.77 µM	6.46 µM	2.35 µM	36.1 µM	3.19 µM	39.8 µM	12.9 µM	3.51 µM	53.9 µM	1.48 µM	6.64 µM	1.14 µM	10.9 µM	3.28 µM	17.8 µM	2.25 µM
COc1ccc(Cl)cc1NC(=O)C(Br)C(Br)C(=O)O (centres undefined)	4.02 µM	18.4 µM	9.23 µM	26 µM	18.1 µM	34 µM	4.79 µM	21.3 µM	> 100 µM	> 100 µM	> 49.2 µM	21.9 µM	> 100 µM	3.27 µM	14.3 µM	16.3 µM	39.2 µM	6.78 µM	> 100 µM	7.69 µM
COC(=O)C1(F)C(=O)NC(=O)NC1O (centres undefined)	–	> 100 µM	–	> 100 µM	–	> 100 µM	–	> 100 µM	–	> 100 µM	> 100 µM	–	> 100 µM	–	> 100 µM	–	> 100 µM	–	> 100 µM	–
CN1CCN(Cc2ccc(NC(=O)c3ccc(C#Cc4c(N)ncc5ccc(F)cc45)cc3)cc2C(F)(F)F)CC1	0.913 µM	1.78 µM	1.14 µM	2.04 µM	0.901 µM	1.64 µM	0.883 µM	1.59 µM	2.2 µM	7.63 µM	1.74 µM	0.94 µM	1.85 µM	0.878 µM	1.85 µM	0.733 µM	1.52 µM	0.799 µM	1.74 µM	1.01 µM
Cc1ccc2c(O)c(O)cc(NC(C)CCCN)c2n1 (centres undefined)	3.89 µM	24.8 µM	7.22 µM	74 µM	3.39 µM	42.5 µM	28.1 µM	> 100 µM	> 78.6 µM	> 100 µM	55.3 µM	25.3 µM	> 83.1 µM	6.57 µM	38.3 µM	25 µM	98.9 µM	2.6 µM	8.99 µM	27.3 µM
O=C(Nc1ccc(Cl)cc1)c1cc(-c2ccc(Cl)cc2)c2sc(=O)[nH]c2n1	2.12 µM	20.1 µM	1.66 µM	3.56 µM	1.63 µM	3.54 µM	2.58 µM	8.85 µM	2.08 µM	7.47 µM	17.8 µM	1.63 µM	11.7 µM	0.584 µM	5.46 µM	1.58 µM	10.3 µM	2.52 µM	11.8 µM	1.57 µM
Cc1ccc(SC2=CC(=O)c3nc4ccccc4c4ccnc2c34)cc1	66.6 µM	> 100 µM	23.4 µM	60 µM	39.4 µM	> 85.6 µM	97.9 µM	> 100 µM	> 100 µM	> 100 µM	> 100 µM	35 µM	> 100 µM	24.3 µM	47.2 µM	20.9 µM	47.5 µM	42.8 µM	> 100 µM	> 100 µM
